Reference: patent publication US8541449B2, “Substituted isoquinolines and isoquinolinones as Rho kinase inhibitors” (Sanofi, priority 2008, dated 2013)

Legend:
Format in all cases: biochemical
[1] = molecular target: T1, human recombinant ROCK II (Homo sapiens, UniProt O75116); assay: Determination of Rho kinase inhibition (Caliper peptide phosphorylation assay); settings: 60 min at 32° C., negative decadal logarithm of the IC50
T1 construct: N-terminal His6-tagged recombinant human ROCK-II residues 11-552; His6 (N); purchased Millipore GmbH, Schwalbach, Germany
Protocol: Determination of Rho Kinase Inhibition
To measure Rho-kinase inhibition, IC50 values were determined according to the following protocol:
Active human recombinant ROCK II (N-terminal His6-tagged recombinant human ROCK-II residues 11-552) was purchased from Millipore GmbH, Schwalbach, Germany. The peptide substrate, Fluorescein-[…]-COOH, was obtained from JPT Peptide Technologies, Berlin, Germany. Adenosine-5′-triphosphate (ATP), bovine serum albumine (BSA), dimethylsulphoxide (DMSO), 4-(2-Hydroxyethyl)piperazine-1-ethanesulfonic acid (Hepes), Brij-35, dithiothreitol (DTT) and Pluronic F-68 were purchased from Sigma-Aldrich, Munich, Germany. Tris(hydroxymethyl)-aminomethane (Tris), magnesium chloride, NaOH, 1M HCl and EDTA were obtained from Merck Biosciences, Darmstadt, Germany. “Complete” protease inhibitor was from Roche Diagnostics, Mannheim, Germany.
(§1) Test compounds were diluted to the appropriate concentrations in buffer 1 (25 mM Tris-HCl, pH 7.4, 5 mM MgCl2, 2 mM DTT, 0.02% (w/v) BSA, 0.01% Pluronic F-68 and 3% DMSO). The ROCK II enzyme was diluted to a concentration of 100 ng/mL in buffer 2 (25 mM Tris-HCl, pH 7.4, 5 mM MgCl2, 2 mM DTT and 0.02% (w/v) BSA). The peptide substrate and ATP were diluted to concentrations of 3 μM and 120 μM, respectively, in the buffer 2. Two μl of the compound solution were mixed with 2 μl of the diluted enzyme in a 384-well small volume microtiter plate (Greiner, Bio-One, Frickenhausen, Germany), and the kinase reaction was initiated by addition of 2 μl of the solution containing peptide substrate and ATP. After 60 min incubation at 32° C., the reaction was stopped by addition of 20 μl of a solution containing 100 mM Hepes-NaOH, pH 7.4, 0.015% (v/v) Brij-35, 45 mM EDTA and 0.227% chip coating reagent 1 (Caliper Lifescience Inc, Hopkinton, Mass.). Phosphorylation of the substrate peptide was then detected on a Caliper 3000 instrument essentially as described by Pommereau et al (J. Biomol. Screening 9(5), 409-416, 2004). Separation conditions were as follows: Pressure −1.3 psi, upstream voltage −1562 V, downstream voltage −500 V, sample sip time 200 ms. Positive controls (buffer 1 instead of compound) and negative controls (buffer 1 instead of compound and buffer 2 instead of ROCK II) were run in parallel on each plate.
The following products/compounds were tested in said assay by using the respective form (salt or free base) obtained as in the examples described above and the following activities were measured

[2] = molecular target: T2, recombinant human PKA (Homo sapiens, UniProt P17612); assay: Determination of Protein Kinase A inhibition (Caliper peptide phosphorylation assay); settings: recombinant human PKA versus ROCK II
T2 construct: Active recombinant human PKA (residues 1-351, N-terminal His-tag); His-tag (N); purchased Invitrogen, Karlsruhe, Germany
Protocol: (§2) Determination of Protein Kinase A and Protein Kinase G Inhibition
(§3) To measure PKA and PKG1-beta inhibition, IC50 values were determined according to the following protocol:
(§4) Active recombinant human PKG1-beta (full-length, with N-terminal His-tag) was purchased from Millipore GmbH, Schwalbach, Germany. Active recombinant human PKA (residues 1-351, N-terminal His-tag) was obtained from Invitrogen, Karlsruhe, Germany. The peptide substrate, Fluorescein-[…]-COOH, was obtained from JPT Peptide Technologies, Berlin, Germany. Adenosine-5′-triphosphate (ATP), bovine serum albumine (BSA), dimethylsulphoxide (DMSO), 4-(2-Hydroxyethyl)piperazine-1-ethanesulfonic acid (Hepes), Brij-35, dithiothreitol (DTT) and Pluronic F-68 were purchased from Sigma-Aldrich, Munich, Germany. Tris(hydroxymethyl)-aminomethane (Tris), magnesium chloride, NaOH, 1M HCl and EDTA were obtained from Merck Biosciences, Darmstadt, Germany. “Complete” protease inhibitor was from Roche Diagnostics, Mannheim, Germany.
as §1, with “PKG1-beta and PKA were” for “The ROCK II enzyme was”, “concentrations” for “a concentration”, “150 ng/ml and 30 ng/ml, respectively,” for “100 ng/mL”, “2.” for “2 (25 mM Tris-HCl, pH 7.4, 5 mM MgCl2, 2 mM DTT and 0.02% (w/v) BSA).”, “kinase solution)” for “ROCK II)”, “plate. The following products/compounds were tested in said assay by using the respective form (salt or free base) obtained as in the examples described above and the following activities were measured.” for “plate.”

[3] = molecular target: T3, recombinant human PKG1-beta (Homo sapiens, UniProt Q13976); assay: Determination of Protein Kinase G inhibition (Caliper peptide phosphorylation assay); settings: recombinant human PKG1-beta versus ROCK II
T3 construct: Active recombinant human PKG1-beta (full-length, with N-terminal His-tag); His-tag (N); purchased Millipore GmbH, Schwalbach, Germany
T3 sequence (Q13976 1-686 isoform Q13976-2): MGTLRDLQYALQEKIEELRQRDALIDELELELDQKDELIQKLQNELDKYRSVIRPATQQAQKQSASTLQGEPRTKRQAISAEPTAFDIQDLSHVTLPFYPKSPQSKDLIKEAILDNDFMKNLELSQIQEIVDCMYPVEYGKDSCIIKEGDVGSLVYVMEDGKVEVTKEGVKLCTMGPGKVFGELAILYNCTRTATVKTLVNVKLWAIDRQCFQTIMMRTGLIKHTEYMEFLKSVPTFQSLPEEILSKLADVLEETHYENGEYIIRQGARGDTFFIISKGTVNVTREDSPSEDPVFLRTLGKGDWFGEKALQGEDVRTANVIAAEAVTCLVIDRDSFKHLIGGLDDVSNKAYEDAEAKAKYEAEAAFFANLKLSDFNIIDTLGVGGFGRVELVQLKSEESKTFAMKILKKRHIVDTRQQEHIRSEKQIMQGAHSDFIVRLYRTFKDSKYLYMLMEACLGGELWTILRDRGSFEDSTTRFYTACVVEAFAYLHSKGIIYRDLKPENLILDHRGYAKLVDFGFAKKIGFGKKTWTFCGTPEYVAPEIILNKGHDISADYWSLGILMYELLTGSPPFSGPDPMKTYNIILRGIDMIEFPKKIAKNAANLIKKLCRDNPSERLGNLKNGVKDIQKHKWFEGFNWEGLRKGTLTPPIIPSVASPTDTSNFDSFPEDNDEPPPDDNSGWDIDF
Protocol: as §2, §3, §4
as §1, with “PKG1-beta and PKA were” for “The ROCK II enzyme was”, “concentrations” for “a concentration”, “150 ng/ml and 30 ng/ml, respectively,” for “100 ng/mL”, “2.” for “2 (25 mM Tris-HCl, pH 7.4, 5 mM MgCl2, 2 mM DTT and 0.02% (w/v) BSA).”, “kinase solution)” for “ROCK II)”, “plate. The following products/compounds were tested in said assay by using the respective form (salt or free base) obtained as in the examples described above and the following activities were measured.” for “plate.”

T1 sequence (O75116 11-552): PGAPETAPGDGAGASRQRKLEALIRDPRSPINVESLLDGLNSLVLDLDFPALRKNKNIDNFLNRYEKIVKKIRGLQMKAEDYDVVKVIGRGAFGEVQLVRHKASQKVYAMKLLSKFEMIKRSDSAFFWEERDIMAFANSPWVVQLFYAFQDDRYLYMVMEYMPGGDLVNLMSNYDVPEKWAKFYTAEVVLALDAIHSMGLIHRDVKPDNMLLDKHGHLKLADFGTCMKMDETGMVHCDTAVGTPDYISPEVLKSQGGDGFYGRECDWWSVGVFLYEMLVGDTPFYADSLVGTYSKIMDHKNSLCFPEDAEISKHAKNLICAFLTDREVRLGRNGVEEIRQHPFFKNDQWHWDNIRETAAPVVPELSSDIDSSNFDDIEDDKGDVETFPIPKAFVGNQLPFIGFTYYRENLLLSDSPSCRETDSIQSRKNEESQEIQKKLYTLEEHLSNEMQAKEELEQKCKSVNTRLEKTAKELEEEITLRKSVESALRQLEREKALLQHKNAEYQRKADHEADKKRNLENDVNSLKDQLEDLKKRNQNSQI

| SMILES | pIC50 [1] | Selectivity against PKA [2] | Selectivity against PKG [3] |
| --- | --- | --- | --- |
| CCC(N)[C@]1(c2ccc(F)cc2)CC[C@H](Oc2cc3cc[nH]c(=O)c3cc2Cl)CC1 (stereo partly drawn) [Example 1, cis-6-[4-(1-Amino-propyl)-4-(4-fluoro-phenyl)-cyclohexyloxy]-7-chloro-2H-isoquinolin-1-one] | +++++++ (8.0≦pIC50) | >1000 | >1000 |
| NC1([C@]2(c3ccccc3)CC[C@H](Oc3cc4cc[nH]c(=O)c4cc3Cl)CC2)CC1 [Example 2, cis-6-[4-(1-Amino-cyclopropyl)-4-phenyl-cyclohexyloxy]-7-chloro-2H-isoquinolin-1-one] | +++++++ (8.0≦pIC50) | >1000 | >1000 |
| CCC(N)[C@]1(c2ccccc2)CC[C@H](Oc2cc3cc[nH]c(=O)c3cc2Cl)CC1 (stereo partly drawn) [Example 3, cis-6-{[4-(1-aminopropyl)-4-phenylcyclohexyl]oxy}-7-chloro-2H-isoquinolin-1-one] | +++++++ (8.0≦pIC50) | >1000 | >300 |
| CCCC(N)[C@]1(c2ccccc2)CC[C@H](Oc2cc3cc[nH]c(=O)c3cc2Cl)CC1 (stereo partly drawn) [Example 4, cis-6-[4-(1-Amino-butyl)-4-phenyl-cyclohexyloxy]-7-chloro-2H-isoquinolin-1-one] | +++++++ (8.0≦pIC50) | >1000 | >100 |
| CCCC(N)[C@]1(c2ccc(F)cc2)CC[C@H](Oc2cc3cc[nH]c(=O)c3cc2Cl)CC1 (stereo partly drawn) [Example 5, cis-6-[4-(1-Amino-butyl)-4-(4-fluoro-phenyl)-cyclo-hexyloxy]-7-chloro-2H-isoquinolin-1-one] | +++++++ (8.0≦pIC50) | >1000 | >300 |
| CCC(N)[C@]1(c2ccc(Br)cc2)CC[C@H](Oc2cc3cc[nH]c(=O)c3cc2Cl)CC1 (stereo partly drawn) [Example 6, cis-6-[4-(1-Amin-propyl)-4-(4-bromo-phenyl)-cyclohexyloxy]-7-chloro-2H-isoquinolin-1-one] | +++++++ (8.0≦pIC50) | >1000 | >300 |
| CCC(N)[C@]1(c2ccccc2Br)CC[C@H](Oc2cc3cc[nH]c(=O)c3cc2Cl)CC1 (stereo partly drawn) [Example 7, cis-6-[4-(1-Amino-propyl)-4-(2-bromo-phenyl)-cyclohexyloxy]-7-chloro-2H-isoquinolin-1-one] | +++++++ (8.0≦pIC50) | >1000 | >300 |
| CCC(N)[C@]1(c2ccc(C(F)(F)F)cc2)CC[C@H](Oc2cc3cc[nH]c(=O)c3cc2Cl)CC1 (stereo partly drawn) [Example 8, cis-6-[4-(1-Amino-propyl)-4-(4-trifluoromethyl-phenyl)-cyclo-hexyloxy]-7-chloro-2H-isoquinolin-1-one] | +++++++ (8.0≦pIC50) | >1000 | >300 |
| CCC(N)[C@]1(c2ccccc2F)CC[C@H](Oc2cc3cc[nH]c(=O)c3cc2Cl)CC1 (stereo partly drawn) [Example 9, cis-6-[4-(1-Amino-propyl)-4-(2-fluoro-phenyl)-cyclohexyloxy]-7-chloro-2H-isoquinolin-1-one] | +++++++ (8.0≦pIC50) | >1000 | >100 |
| CCC(N)[C@]1(c2ccccc2Cl)CC[C@H](Oc2cc3cc[nH]c(=O)c3cc2Cl)CC1 (stereo partly drawn) [Example 10, cis-6-[4-(1-Amino-propyl)-4-(2-chloro-phenyl)-cyclohexyloxy]-7-chloro-2H-iso quinolin-1-one] | +++++++ (8.0≦pIC50) | >100 | >100 |
| CCC(N)[C@]1(c2ccccc2)CC[C@H](Oc2cc3cc[nH]c(=O)c3cc2C)CC1 (stereo partly drawn) [Example 11, cis-6-[4-(1-Amino-propyl)-4-phenyl-cyclohexyloxy]-7-methyl-2H-iso quinolin-1-one] | ++++++ (7.0≦pIC50<8.0) | >300 | >10 |
| CCCC(N)[C@]1(c2ccc(F)cc2)CC[C@@H](Oc2cc3cc[nH]c(=O)c3cc2Cl)CC1 (stereo partly drawn) [Example 12, trans-6-[4-(1-Amino-butyl)-4-(4-fluoro-phenyl)-cyclohexyloxy]-7-chloro-2H-isoquinolin-1-one] | +++++ (6.0≦pIC50<7.0) | >100 | >10 |
| CC(N)[C@]1(c2ccc(F)cc2)CC[C@@H](Oc2cc3cc[nH]c(=O)c3cc2Cl)CC1 (stereo partly drawn) [Example 13, trans-6-[4-(1-Amino-ethyl)-4-(4-fluoro-phenyl)-cyclohexyloxy]-7-chloro-2H-isoquinolin-1-one] | ++++++ (7.0≦pIC50<8.0) | >300 | >100 |
| CCCC(N)[C@]1(c2ccccc2)CC[C@@H](Oc2cc3cc[nH]c(=O)c3cc2Cl)CC1 (stereo partly drawn) [Example 14, trans-6-[4-(1-Amino-butyl)-4-phenyl-cyclohexyloxy]-7-chloro-2H-isoquinolin-1-one] | +++++ (6.0≦pIC50<7.0) | >100 | >100 |
